Source: article PMC11505918, “The Epiphyte Bacillus sp. G2112 Produces a Large Diversity of Nobilamide Peptides That Promote Biofilm Formation in Pseudomonads and Mycobacterium aurum” (Biomolecules, 2024)
Where a SMILES comes first, the peptide text is derived from it. Bridges are numbered along the chain shown (N, C = ends). [ ]: non-standard residue; d: D form. The star is where a group is joined. d(aThr) = C[C@@H](O)[C@@H](N)C(=O)O; Isobutyryl = CC(C)C(=O)*; Dhb = C/C=C(\N)C(=O)O; Propionyl = CCC(=O)*

Columns and labels:
[1] = system: Lysinibacillus sphaericus DSM1867; conditions: for inhibition zone against L. sphaericus: DSM1867, 0.1 mg/mL; for antibiotic activity against L. sphaericus (in words): agar diffusion, 5 µg/hole (Figure S97b)
M. aurum = assay: Crystal violet biofilm formation assay, M. aurum; conditions: crystal violet staining, 0.2 µg/µL, KB medium, 28 °C, 2 d
P. syringae pv. glycinea = assay: Crystal violet biofilm formation assay, P. syringae pv. glycinea; conditions: crystal violet staining, 0.2 µg/µL, KB medium, 28 °C, 2 d
Pseudomonas sp. G124 = assay: Crystal violet biofilm formation assay, Pseudomonas sp. G124; conditions: crystal violet staining, 0.2 µg/µL, KB medium, 28 °C, 2 d
[2] = system: lung, gastric, and colorectal cancers; conditions: cited from earlier work
[3] = system: matrix metalloproteinase-2 and -9; conditions: lung, gastric, and colorectal cancers; cited from earlier work

Row | Molecule | inhibition zone against L. sphaericus [1] | antibiotic activity against L. sphaericus (in words) [1] | effect on biofilm formation in M. aurum (in words) (M. aurum) | effect on biofilm formation in P. syringae pv. glycinea (in words) (P. syringae pv. glycinea) | effect on biofilm formation in Pseudomonas sp. G124 (in words) (Pseudomonas sp. G124) | cancer cell motility (in words) [2] | expression of the matrix metalloproteinase-2 and -9 (in words) [3]
1 | C/C=C1\NC(=O)[C@H](C)NC(=O)[C@H](C(C)C)NC(=O)[C@H](NC(=O)[C@H](Cc2ccccc2)NC(=O)[C@@H](CC(C)C)NC(=O)[C@@H](Cc2ccccc2)NC(=O)CC)[C@@H](C)OC1=O [A-3302-A (2), A-3302-A] (Propionyl-[dF][dL]F[d(aThr)]VA[Dhb]; ester 4-C) | 18.3 mm | powerful antibiotic activity | – | – | – | – | –
2 | nobilamide A [nobilamide A (4)] | – | did not exhibit antimicrobial activity | strongly induced | strongly induced | strongly induced | – | –
3 | nobilamide S [nobilamide S (18)] | – | – | – | did not promote biofilm formation | induced biofilm formation | – | –
4 | nobilamide I [nobilamide I (8)] | – | – | less clear effect | worked best | less clear effect | suppressed | suppressed
5 | nobilamide W [nobilamide W (22)] | – | – | strongly induced | strongly induced | strongly induced | – | –
6 | C/C=C1\NC(=O)[C@H](C)NC(=O)[C@H](C(C)C)NC(=O)[C@H](NC(=O)[C@H](Cc2ccccc2)NC(=O)[C@@H](CC(C)C)NC(=O)[C@@H](Cc2ccccc2)NC(=O)C(C)C)[C@@H](C)OC1=O [nobilamide J (9), nobilamide J] (Isobutyryl-[dF][dL]F[d(aThr)]VA[Dhb]; ester 4-C) | 21.3 mm | powerful antibiotic activity | – | – | – | – | –
